Patent US20190169140A1, “IDO1 INHIBITOR AND PREPARATION METHOD AND APPLICATION THEREOF” (SHANDONG LUYE PHARMACEUTICAL CO., LTD., priority 2016, published 2019)

Experiments:
CYP3A4 = molecular target: T1, CYP3A4 (Homo sapiens, UniProt P08684); assay: Inhibition on human liver microsome CYP3A4; type: in vitro ADME; details: human liver microsomes; for IC50: 5-in-1 probe substrate
T1 construct: tissue Corning Inc. or XenoTech, LLC. or other suppliers; host or cells: mixed human liver microsomes
Protocol: (§1) The research project aimed at evaluating inhibitory ability of a sample for test on human liver microsome cytochrome P450 isozymes (CYP1A2, CYP2C9, CYP2C19, CYP2D6, and CYP3A4) with use of a 5-in-1 probe substrate for CYP isozymes.
(§2) Mixed human liver microsomes (HLM) were purchased from Corning Inc. (Steuben, N.Y., USA) or XenoTech, LLC. (Lenexa, Kans., USA) or other suppliers, and stored in a condition below −70° C. before use.
(§3) Diluted working solutions of the sample for test in serial concentrations were added to an incubation system containing the human liver microsomes, probe substrate, and accessory factors of a cycling system, and a control containing no sample for test but a solvent was taken as a control for enzymatic activity (100%). Concentration of metabolites generated by the probe substrate in the sample was measured with a method of liquid chromatography-tandem mass spectrometry (LC-MS/MS). Nonlinear regression analysis of mean percentage activity vs concentration of the sample for test was carried out using SigmaPlot (V.11). An IC^50 value was calculated through a three-parameter or four-parameter inflection logarithmic equation.

CYP1A2 = molecular target: T2, CYP1A2 (Homo sapiens, UniProt P05177); assay: Inhibition on human liver microsome CYP1A2; type: in vitro ADME; details: human liver microsomes; for IC50: 5-in-1 probe substrate
T2 construct: tissue Corning Inc. or XenoTech, LLC. or other suppliers; host or cells: mixed human liver microsomes
T2 sequence (P05177 1-516): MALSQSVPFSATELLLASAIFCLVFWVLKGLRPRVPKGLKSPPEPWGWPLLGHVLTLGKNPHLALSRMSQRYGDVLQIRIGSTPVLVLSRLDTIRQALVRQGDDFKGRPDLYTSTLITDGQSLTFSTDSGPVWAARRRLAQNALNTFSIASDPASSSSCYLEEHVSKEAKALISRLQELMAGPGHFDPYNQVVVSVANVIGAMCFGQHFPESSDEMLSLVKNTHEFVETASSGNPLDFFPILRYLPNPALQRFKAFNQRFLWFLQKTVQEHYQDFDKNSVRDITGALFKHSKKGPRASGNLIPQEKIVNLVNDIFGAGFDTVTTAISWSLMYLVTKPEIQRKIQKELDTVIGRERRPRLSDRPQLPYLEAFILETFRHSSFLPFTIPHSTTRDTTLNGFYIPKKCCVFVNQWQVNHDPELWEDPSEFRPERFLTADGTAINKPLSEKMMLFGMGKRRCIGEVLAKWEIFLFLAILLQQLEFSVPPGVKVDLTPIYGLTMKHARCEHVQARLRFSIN
Protocol: as §1, §2, §3

[1] = Liver microsome stability, rat; type: in vitro ADME, SD rats; details: rat liver microsomes; for CLint scaled: SD, read-out: Intrinsic clearance; for Remaining % (60 min): 37° C.
Protocol: (§4) The purpose of research in the present experiment is assessing phase I metabolic stability of the sample for test in CD-1 mice, SD rats, and human liver microsomes.
(§5) The animals and human liver microsomes used in this test system were purchased from BD Gentest, Xenotech, Corning or BioreclamationIVT, and stored in a refrigerator at −80° C. before use.
(§6) The sample for test and control were incubated together with the microsomes under a condition of 37° C. for 60 minutes, and a cold acetonitrile solution (or other organic solvents) containing an internal standard substance was added at a designated time point to terminate the reaction. After centrifugation, a resultant supernatant was assayed in a semiquantitative manner through liquid chromatography tandem mass spectrometry (LC/MS/MS). Software Analyst (AB Sciex, Framingham, Mass., USA) was used for processing retention time of analyte and internal standard, and achieving chromatogram collection, and chromatogram integration
(§7) An in vitro elimination rate constant ke of the sample was obtained by converting a ratio of the sample to a peak area of the internal standard to remaining percentage, to calculate an in vitro elimination rate and half-life of the sample for test.

[2] = Liver microsome stability, mouse; type: in vitro ADME, CD-1 mice; details: mouse liver microsomes; for CLint scaled: CD-1, read-out: Intrinsic clearance; for Remaining % (60 min): 37° C.
Protocol: as §4, §5, §6, §7

CYP2C19 = molecular target: T3, CYP2C19 (Homo sapiens, UniProt P33261); assay: Inhibition on human liver microsome CYP2C19; type: in vitro ADME; details: human liver microsomes; for IC50: 5-in-1 probe substrate
T3 construct: tissue Corning Inc. or XenoTech, LLC. or other suppliers; host or cells: mixed human liver microsomes
T3 sequence (P33261 whole entry): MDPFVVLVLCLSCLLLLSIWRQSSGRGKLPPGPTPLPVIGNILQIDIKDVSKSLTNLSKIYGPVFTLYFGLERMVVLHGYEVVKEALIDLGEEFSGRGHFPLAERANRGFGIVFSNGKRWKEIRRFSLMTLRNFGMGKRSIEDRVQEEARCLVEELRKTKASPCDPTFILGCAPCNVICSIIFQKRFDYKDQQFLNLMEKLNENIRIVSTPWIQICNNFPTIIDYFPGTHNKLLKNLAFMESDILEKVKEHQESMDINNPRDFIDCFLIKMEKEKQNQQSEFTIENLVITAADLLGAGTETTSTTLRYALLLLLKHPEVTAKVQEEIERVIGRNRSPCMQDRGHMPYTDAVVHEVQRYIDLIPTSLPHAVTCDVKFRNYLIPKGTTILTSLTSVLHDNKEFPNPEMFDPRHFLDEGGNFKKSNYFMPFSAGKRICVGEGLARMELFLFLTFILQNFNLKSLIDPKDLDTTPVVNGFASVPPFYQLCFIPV
Protocol: as §1, §2, §3

CYP2D6 = molecular target: T4, CYP2D6 (Homo sapiens, UniProt P10635); assay: Inhibition on human liver microsome CYP2D6; type: in vitro ADME; details: human liver microsomes; for IC50: 5-in-1 probe substrate
T4 construct: tissue Corning Inc. or XenoTech, LLC. or other suppliers; host or cells: mixed human liver microsomes
T4 sequence (P10635 whole entry): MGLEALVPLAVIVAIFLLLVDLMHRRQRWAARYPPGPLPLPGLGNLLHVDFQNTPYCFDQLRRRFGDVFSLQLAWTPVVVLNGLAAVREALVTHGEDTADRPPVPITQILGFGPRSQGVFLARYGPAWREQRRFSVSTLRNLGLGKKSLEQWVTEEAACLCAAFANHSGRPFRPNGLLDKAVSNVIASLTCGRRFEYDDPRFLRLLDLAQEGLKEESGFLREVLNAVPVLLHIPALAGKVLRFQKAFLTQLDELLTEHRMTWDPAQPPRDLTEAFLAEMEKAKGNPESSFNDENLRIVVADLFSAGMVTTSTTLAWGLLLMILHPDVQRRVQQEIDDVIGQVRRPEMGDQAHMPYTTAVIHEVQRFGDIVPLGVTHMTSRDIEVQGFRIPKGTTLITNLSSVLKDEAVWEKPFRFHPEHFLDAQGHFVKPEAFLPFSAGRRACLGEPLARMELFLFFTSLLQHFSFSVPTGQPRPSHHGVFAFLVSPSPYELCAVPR
Protocol: as §1, §2, §3

CYP2C9 = molecular target: T5, CYP2C9 (Homo sapiens, UniProt P11712); assay: Inhibition on human liver microsome CYP2C9; type: in vitro ADME; details: human liver microsomes; for IC50: 5-in-1 probe substrate
T5 construct: tissue Corning Inc. or XenoTech, LLC. or other suppliers; host or cells: mixed human liver microsomes
T5 sequence (P11712 whole entry): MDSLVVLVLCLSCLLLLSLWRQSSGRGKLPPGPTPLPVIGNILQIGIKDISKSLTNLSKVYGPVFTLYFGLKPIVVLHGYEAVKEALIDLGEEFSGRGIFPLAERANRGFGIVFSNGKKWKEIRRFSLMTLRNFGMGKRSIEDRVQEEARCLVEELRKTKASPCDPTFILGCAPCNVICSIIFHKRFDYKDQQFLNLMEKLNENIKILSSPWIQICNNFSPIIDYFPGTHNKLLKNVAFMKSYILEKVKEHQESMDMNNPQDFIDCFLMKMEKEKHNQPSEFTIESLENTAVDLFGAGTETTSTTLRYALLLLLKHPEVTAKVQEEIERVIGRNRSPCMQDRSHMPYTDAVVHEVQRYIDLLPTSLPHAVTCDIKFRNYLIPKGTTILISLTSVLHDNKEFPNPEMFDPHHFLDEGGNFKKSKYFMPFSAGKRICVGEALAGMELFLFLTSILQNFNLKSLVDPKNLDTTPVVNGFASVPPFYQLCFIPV
Protocol: as §1, §2, §3

[3] = Pharmacokinetics experiment of mice in vivo, single intravenous injection; design: species or system male CD-1 mice; details: Mouse PK, IV 1 mg/kg; for AUC(0-inf) / AUC(0-t) / Vd / clearance / half-life: male, CD-1, plasma
Protocol: The present experiment aimed at researching status of pharmacokinetics of a sample for test in plasma of male CD-1 mice after single intravenous injection.
Three animals in an intravenous group were intravenously injected with the sample for test by 1 mg/kg, and a formulation was 0.2 mg/mL settled solution of 5% DMSO/95% (10% HP-β-CD). 5 minutes, 15 minutes, 30 minutes, 1 hour, 2 hours, 4 hours, 6 hours, 8 hours, and 24 hours after the administration, blood was collected and prepared into a plasma specimen, with an anticoagulant of EDTA-K2. Plasma concentration data was obtained by analyzing the specimen through LC-MS/MS.
The plasma drug concentration data was processed with a non-compartment model using WinNonlin™ Version 6.3 (Pharsight, Mountain View, Calif.) pharmacokinetics software. Following pharmacokinetics parameters were calculated using a log-linear trapezoidal method: elimination phase half-life (T1/2), apparent volume of distribution (Vdss), and clearance rate (CL), mean retention time of drug in body from point 0 to end time point (MRT0-last), mean retention time of drug in body from point 0 to infinite time (MRT0-inf), area under a time-plasma concentration curve from point 0 to end time point (AUC0-last), area under a time-plasma concentration curve from point 0 to infinite time (AUC0-inf), and initial concentration (C0).

mice colon cancer CT26 = details: according to document reports; cited from earlier work

T1 sequence (P08684 whole entry): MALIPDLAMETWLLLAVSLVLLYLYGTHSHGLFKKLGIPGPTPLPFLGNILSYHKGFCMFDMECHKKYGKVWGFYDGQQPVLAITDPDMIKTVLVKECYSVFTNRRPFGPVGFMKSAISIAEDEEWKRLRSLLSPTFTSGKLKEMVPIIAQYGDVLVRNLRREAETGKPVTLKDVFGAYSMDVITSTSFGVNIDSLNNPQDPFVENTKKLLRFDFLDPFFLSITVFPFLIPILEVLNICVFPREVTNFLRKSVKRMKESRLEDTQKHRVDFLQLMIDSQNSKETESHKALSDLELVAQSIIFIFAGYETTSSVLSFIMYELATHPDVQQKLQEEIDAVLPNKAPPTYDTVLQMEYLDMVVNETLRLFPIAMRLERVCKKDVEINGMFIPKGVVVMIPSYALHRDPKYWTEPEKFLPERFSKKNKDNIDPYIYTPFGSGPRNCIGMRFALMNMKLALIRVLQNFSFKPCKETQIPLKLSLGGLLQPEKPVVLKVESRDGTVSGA

| Compound | IC50 (CYP3A4) | IC50 (CYP1A2) | CLint scaled [1] | metabolic stability in words [1] | Remaining % (60 min) [1] | CLint scaled [2] | metabolic stability in words [2] | Remaining % (60 min) [2] | inhibiting effect on CYP2C19 in words (CYP2C19) | IC50 (CYP2C19) | IC50 (CYP2D6) | IC50 (CYP2C9) | AUC(0-inf) [3] | AUC(0-t) [3] | Vd [3] | clearance [3] | half-life [3] | further results |
| --- | --- | --- | --- | --- | --- | --- | --- | --- | --- | --- | --- | --- | --- | --- | --- | --- | --- | --- |
| CC(=O)NCCSc1nonc1/C(=N/O)Nc1ccc(F)c(Br)c1 [Compound 0227] | 39.2 µM | 13 µM | 91.9 mL/min/kg | metabolized quickly | 21.6% | 275 mL/min/kg | metabolized quickly | 11.0% | intermediate degree | 3.61 µM | 26.1 µM | 15.9 µM | 0.628 µM·h | 0.624 µM·h | 2.66 L/kg | 64.2 mL/min/kg | 0.867 h | – |
| NC(=O)NCCSc1nonc1/C(=N/O)Nc1ccc(F)c(Br)c1 [Compound 0231] | > 50 µM | > 50 µM | 23.7 mL/min/kg | metabolized in a relatively steady manner | 64.8% | 134 mL/min/kg | metabolized quickly | 35.8% | relatively weak effect | 36.4 µM | > 50 µM | > 50 µM | 0.881 µM·h | 0.852 µM·h | 4.85 L/kg | 55.1 mL/min/kg | 2.44 h | inhibiting effect on CYP3A4 in words (CYP3A4): relatively weak effect; inhibiting effect on CYP1A2 in words (CYP1A2): relatively weak effect; inhibiting effect on CYP2D6 in words (CYP2D6): relatively weak effect; inhibiting effect on CYP2C9 in words (CYP2C9): relatively weak effect; Conc. (8 h) ([3]; plasma, 8 h): 8.16/ND nM |
| NS(=O)(=O)NCCNc1nonc1C(=NO)Nc1ccc(F)c(Br)c1 [Compound 360, INCB024360, reference compound] | – | – | – | – | – | – | – | – | – | – | – | – | – | – | – | – | – | growth of tumors in mice colon cancer CT26 model (mice colon cancer CT26): effectively inhibit growth of tumors |
